The values below come from patent US5096902A, “Heterocyclic compounds containing nitrogen and sulfur, pharmaceutical compositions containing them and process for preparing same” (Richter Gedeon Vegyeszeti Gyar Rt., priority 1989, dated 1992).

The subject of data set [1] is conscious mice. In words: Normobaric hypoxia test (96% nitrogen / 4% oxygen) in conscious mice. Type of data set: in vivo. Particulars: 50 mg/kg i.p.; for Survival time / response vs control in vivo at 50 mg/kg: 30 min before; for Survival time: three series with controls 6.32, 5.78 and 3.05 min; for response vs control in vivo at 50 mg/kg / responders at 50 mg/kg: Mus musculus, ip; for response vs control in vivo at 50 mg/kg: control = 100, read-out: Survival time, % (relative to control group); for responders at 50 mg/kg: protected = survival twice as long as control group, read-out: Protection. The text has this:
The antihypoxic activity was investigated on conscious mice under normobaric hypoxia. Five male mice each were placed in a glass cylinder of 3 liters volume, which a gaseous mixture containing 96% of nitrogen and 4% of oxygen was bubbled through. The interval passing from the accomodation of the animals until the cessation of their respiratory movement was registered as survival time. Animals surviving a time of two times as long as that of the control group, were considered to be protected.
Ten animals each were intraperitoneally (i.p.) given a dose of 50 mg/kg of body-weight (hereinafter abbreviated: mg/kg) each of the substances 30 minutes before the accommodation in the glass cylinders. The average time of survival, the percentage of elongation of survival time in comparison to that of the control group and the percentage of the animals protected are shown in Table I.

For data set [2], the system named is mice. The experiment in a line: Hypobaric hypoxia test. The format is in vivo. Conditions: Mus musculus; oral, mice starved 16 hours, 170 Hgmm, 1 hour after treatment; protected = survival twice control; probit analysis. The method, then:
(§1) The antihypoxic effect of the compounds according to the invention was proven also by using the methods of asphyxial anoxia and hypobaric hypoxia. These investigations were carried out by oral administration also proving the oral efficiency which makes possible use of the active compounds according to the invention in a tablet form.
Mice starved for 16 hours were orally treated with the compounds according to the invention, and placed into a desiccator one hour following the treatment. The pressure in the desiccator was reduced to 170 Hgmm within 20 seconds and the survival time was registered from this time until the cessation of respiratory movement. Animals surviving twice as long as the average survival time of the control group were considered to be protected.
(§2) In the cases of both methods, the ED50 values, i.e. the dose protecting half of the treated animals from the hypoxia, were calculated by using probit analysis.

Data set [3] deals with mice. In words: Asphyxial anoxia test. Type of data set: in vivo. Conditions: Mus musculus; oral, mice starved 16 hours, 1 hour after treatment; protected = survival longer by 30% than control; probit analysis. The procedure: as §1
Mice starved for 16 hours were orally treated with the compounds according to the invention and after one hour, they were placed into well-closed glass bottles of 100 ml volume. The interval passing from closing the bottle until the cessation of the respiratory movement was registered as survival time. Animals surviving longer by 30% than that of average survival time of the control group, were considered to be protected.
as §2

Data set [4] is described as follows: Toxicity (LD50) on mice. Conditions: mouse, in vivo. The procedure:
The toxicity of the active compound of Example 35a according to the invention was determined on mice.

Like-named read-outs stand apart in the source and are kept apart here.

`O=C(CCN1CCSC1)c1ccccc1` [Example 1, 1-phenyl-3-(thiazolidinyl)propan-1-one]: in data set [1], the Survival time came to 9.35 min, the response vs control in vivo at 50 mg/kg was 148% and the responders at 50 mg/kg is 30%.

On to `COc1ccc(C(=O)CCN2CCSC2)cc1` [Example 8], for which, in data set [1], the Survival time was 8.27 min, the response vs control in vivo at 50 mg/kg turned out to be 131% and the responders at 50 mg/kg was 20%.

Regarding `COc1ccc(C(=O)CCN2CCSC2)c(C)c1` [Example 12], in data set [1], the Survival time came out at 10.28 min, the response vs control in vivo at 50 mg/kg came out at 178% and the responders at 50 mg/kg was found to be 40%.

Usually ED50 stands for the dose at which the effect has come halfway, by size or by number of responders. In turn, `O=C(CCN1CCSC1)c1ccc(Cl)cc1` [Example 17] came in with an ED50 in data set [2] of 60 mg/kg. In addition, in data set [1], the Survival time is 11.00 min, the response vs control in vivo at 50 mg/kg stood at 174% and the responders at 50 mg/kg was determined as 60%. Further, the median effective dose (ED50) in data set [3] was 55 mg/kg.

With `O=C(CCN1CCSC1)c1ccc(Br)cc1` [Example 18], in data set [1], the Survival time is 10.58 min, the response vs control in vivo at 50 mg/kg is 167% and the responders at 50 mg/kg was found to be 50%.

For `O=C(CCN1CCSC1)c1ccc(Cl)c(Cl)c1` [Example 19], in data set [1], the Survival time was 7.90 min, the response vs control in vivo at 50 mg/kg turned out to be 125% and the responders at 50 mg/kg worked out at 20%.

As to `O=C(CCN1CCSC1)c1cccc([N+](=O)[O-])c1` [Example 20], in data set [1], the Survival time worked out at 7.85 min, the response vs control in vivo at 50 mg/kg is 136% and the responders at 50 mg/kg amounted to 20%.

For the compound `CC(CN1CCSC1)C(=O)c1ccccc1` (stereo not drawn) [Example 22], in data set [1], the Survival time was found to be 9.27 min, the response vs control in vivo at 50 mg/kg worked out at 147% and the responders at 50 mg/kg amounted to 30%.

For `CC(CN1CCSC1)C(=O)c1ccc(F)cc1` (stereo not drawn) [Example 27], in data set [1], the Survival time was found to be 5.32 min, the response vs control in vivo at 50 mg/kg amounted to 174% and the responders at 50 mg/kg is 20%.

As to `CC(CN1CCSC1)C(=O)c1ccc(Br)cc1` (stereo not drawn) [Example 30], in data set [1], the Survival time is 8.40 min, the response vs control in vivo at 50 mg/kg was 145% and the responders at 50 mg/kg turned out to be 40%.

For `CSc1ccc(C(=O)CCN2CCSC2)cc1` [Example 34, 1-(4-methylthiophenyl)-3-(3-thiazolidinyl)propan-1-one], in data set [1], the Survival time was found to be 12.76 min, the response vs control in vivo at 50 mg/kg came to 202% and the responders at 50 mg/kg turned out to be 70%.

For orientation: LD50 means the dose expected to kill half of the subjects tested. `O=C(CCN1CCSC1)c1ccc(F)cc1` [Example 35a, 1-(4-fluorophenyl)-3-(3-thiazolidinyl)propan-1-one] had a 50% effective dose (ED50) in data set [2] of 58.7 mg/kg. For the same compound, in data set [1], the Survival time was found to be 10.75 min, the response vs control in vivo at 50 mg/kg was determined as 186% and the responders at 50 mg/kg worked out at 60%. In addition, the LD50 in data set [4] (intravenous, read-out: LD50 intravenously) is 108 mg/kg. The LD50 in data set [4] (oral, read-out: LD50 orally) stood at 646 mg/kg. Also, the 50% effective dose (ED50) in data set [3] turned out to be 18.3 mg/kg.

`O=C(CCN1CCSC1)c1cccs1` [Example 37, 1-(2-thienyl)-3-(3-thiazolidinyl)propan-1-one]: in data set [1], the Survival time came to 12.22 min, the response vs control in vivo at 50 mg/kg worked out at 211% and the responders at 50 mg/kg is 60%.

Regarding `CCc1ccc(C(=O)CCN2CCSC2)s1` [Example 38], in data set [1], the Survival time worked out at 9.95 min, the response vs control in vivo at 50 mg/kg was determined as 172% and the responders at 50 mg/kg turned out to be 30%.

Regarding `O=C(CCN1CCSC1)c1ccc(Cl)s1` [Example 39], in data set [1], the Survival time worked out at 10.43 min, the response vs control in vivo at 50 mg/kg was 180% and the responders at 50 mg/kg came out at 40%.

On to `CC(CN1CCSC1)C(=O)c1cccs1` (stereo not drawn) [Example 41], for which, in data set [1], the Survival time came to 8.91 min, the response vs control in vivo at 50 mg/kg stood at 154% and the responders at 50 mg/kg amounted to 20%.

As for `O=C(CCN1CCCSC1)c1ccc(-c2ccccc2)cc1` [Example 49], in data set [1], the Survival time is 9.72 min, the response vs control in vivo at 50 mg/kg was found to be 154% and the responders at 50 mg/kg stood at 30%.

For `COC(=O)C1N(CCC(=O)c2ccc(F)cc2)CSC1(C)C` (stereo not drawn) [Example 70], in data set [1], the Survival time was 5.78 min, the response vs control in vivo at 50 mg/kg is 189% and the responders at 50 mg/kg is 60%.
